The numbers were not newly measured in patent US9181307B2, “Influenza A 2009 pandemic H1N1 polypeptide fragments comprising endonuclease activity and their use” (priority 2010, dated 2015), which cites them from elsewhere.

The target in the data set is influenza endonuclease (Influenza A virus, UniProt P03433). The following applies: recently reported, Kuzuhara 2009; cited from earlier work.

On to `O=C(O[C@@H]1Cc2c(O)cc(O)cc2O[C@@H]1c1cc(O)c(O)c(O)c1)c1cc(O)c(O)c(O)c1` [EGCG, [(2R,3R)-5,7-dihydroxy-2-(3,4,5-trihydroxyphenyl)chroman-3-yl]3,4,5-trihydroxybenzoate], for which the “inhibits the influenza endonuclease” value was “inhibits the influenza endonuclease”.
